The source made the active and inactive calls. No cut-off for these calls is given here.
Legend:
[1] = molecular target: T1, Orexin/Hypocretin receptor type 1 (Homo sapiens, UniProt O43613); test: Antagonist activity against human orexin 1 receptor expressed in CHO cells assessed as effect in calcium mobilization by FLIPR assay; assay type: functional, cell-based
T1 sequence (O43613 whole entry): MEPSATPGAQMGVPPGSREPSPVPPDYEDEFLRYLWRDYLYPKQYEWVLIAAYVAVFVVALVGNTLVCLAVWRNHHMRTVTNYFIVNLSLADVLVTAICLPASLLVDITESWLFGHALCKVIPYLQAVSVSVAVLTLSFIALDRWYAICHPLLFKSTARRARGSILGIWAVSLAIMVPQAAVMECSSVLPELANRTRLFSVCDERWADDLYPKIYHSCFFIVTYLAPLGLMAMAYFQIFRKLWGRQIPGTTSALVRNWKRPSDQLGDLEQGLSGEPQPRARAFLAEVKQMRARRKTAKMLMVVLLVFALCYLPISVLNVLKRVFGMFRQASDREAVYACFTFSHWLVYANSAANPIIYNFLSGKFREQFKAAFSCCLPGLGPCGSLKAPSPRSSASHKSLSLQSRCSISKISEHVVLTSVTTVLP

Orexin receptor type 2 = molecular target: T2, Orexin receptor type 2 (Homo sapiens, UniProt O43614); test: Antagonist activity against human orexin 2 receptor expressed in CHO cells assessed as effect in calcium mobilization by FLIPR assay; assay type: functional, cell-based
T2 sequence (O43614 whole entry): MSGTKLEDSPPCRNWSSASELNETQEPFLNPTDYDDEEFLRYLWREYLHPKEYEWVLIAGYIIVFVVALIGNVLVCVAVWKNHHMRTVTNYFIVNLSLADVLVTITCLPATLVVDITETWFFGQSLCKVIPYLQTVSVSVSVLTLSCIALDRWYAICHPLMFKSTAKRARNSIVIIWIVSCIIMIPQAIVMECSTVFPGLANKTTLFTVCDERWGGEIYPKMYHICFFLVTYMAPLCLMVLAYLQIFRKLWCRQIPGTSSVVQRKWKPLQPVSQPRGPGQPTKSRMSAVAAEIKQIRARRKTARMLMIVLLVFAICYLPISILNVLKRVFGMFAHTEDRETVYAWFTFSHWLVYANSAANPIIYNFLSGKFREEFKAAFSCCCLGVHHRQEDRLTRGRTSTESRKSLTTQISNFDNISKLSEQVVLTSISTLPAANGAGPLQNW

Cytochrome P450 2C19 = Cytochrome P450 2C19 (Homo sapiens, UniProt P33261); test: Inhibition of CYP2C19 by CYPEX bactosome P450 inhibition assay; assay type: ADME
[2] = molecular target: T3, Orexin/Hypocretin receptor type 1 (Rattus norvegicus) (UniProt P56718); test: Antagonist activity against rat orexin 1 receptor expressed in RBL cells by [3H]inositol phosphate accumulation assay; assay type: functional, cell-based
T3 sequence (whole entry): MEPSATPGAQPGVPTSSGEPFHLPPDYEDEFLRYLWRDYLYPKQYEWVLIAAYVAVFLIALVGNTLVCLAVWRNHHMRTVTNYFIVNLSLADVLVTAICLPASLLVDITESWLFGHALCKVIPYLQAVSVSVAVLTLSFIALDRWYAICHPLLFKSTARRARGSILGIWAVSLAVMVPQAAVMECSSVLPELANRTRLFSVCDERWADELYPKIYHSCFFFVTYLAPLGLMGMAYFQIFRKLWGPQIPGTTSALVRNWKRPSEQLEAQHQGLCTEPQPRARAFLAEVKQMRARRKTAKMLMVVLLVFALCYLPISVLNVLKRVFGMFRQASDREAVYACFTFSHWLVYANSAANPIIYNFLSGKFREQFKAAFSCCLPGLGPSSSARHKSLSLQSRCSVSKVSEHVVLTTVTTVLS

Cytochrome P450 3A4 [3] = molecular target: T4, Cytochrome P450 3A4 (Homo sapiens, UniProt P08684); test: Inhibition of CYP3A4 by CYPEX bactosome P450 inhibition assay; assay type: ADME
[4] = molecular target: T5, Orexin receptor type 2 (Rattus norvegicus) (UniProt P56719); test: Antagonist activity against rat orexin 2 receptor expressed in RBL cells by [3H]inositol phosphate accumulation assay; assay type: functional, cell-based
T5 sequence (whole entry): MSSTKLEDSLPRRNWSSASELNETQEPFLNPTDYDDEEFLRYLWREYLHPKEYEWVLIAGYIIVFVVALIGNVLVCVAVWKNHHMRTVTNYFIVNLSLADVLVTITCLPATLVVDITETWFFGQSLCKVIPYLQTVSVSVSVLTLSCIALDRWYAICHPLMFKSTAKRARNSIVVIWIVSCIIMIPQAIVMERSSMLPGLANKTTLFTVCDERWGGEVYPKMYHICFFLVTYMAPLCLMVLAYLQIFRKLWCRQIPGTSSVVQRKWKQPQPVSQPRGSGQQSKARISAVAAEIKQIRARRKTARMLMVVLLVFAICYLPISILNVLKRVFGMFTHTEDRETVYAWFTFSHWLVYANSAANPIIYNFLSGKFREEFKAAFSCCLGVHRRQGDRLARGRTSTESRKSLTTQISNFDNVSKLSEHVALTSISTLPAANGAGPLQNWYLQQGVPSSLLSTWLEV

Cytochrome P450 2D6 = Cytochrome P450 2D6 (Homo sapiens, UniProt P10635); test: Inhibition of CYP2D6 by CYPEX bactosome P450 inhibition assay; assay type: ADME
Cytochrome P450 3A4 [5] = molecular target: T4, Cytochrome P450 3A4; test: Inhibition of CYP3A4 using DEF substrate by CYPEX bactosome P450 inhibition assay; assay type: ADME
Cytochrome P450 1A2 = molecular target: T6, Cytochrome P450 1A2 (Homo sapiens, UniProt P05177); test: Inhibition of CYP1A2 by CYPEX bactosome P450 inhibition assay; assay type: ADME
T6 sequence (P05177 whole entry): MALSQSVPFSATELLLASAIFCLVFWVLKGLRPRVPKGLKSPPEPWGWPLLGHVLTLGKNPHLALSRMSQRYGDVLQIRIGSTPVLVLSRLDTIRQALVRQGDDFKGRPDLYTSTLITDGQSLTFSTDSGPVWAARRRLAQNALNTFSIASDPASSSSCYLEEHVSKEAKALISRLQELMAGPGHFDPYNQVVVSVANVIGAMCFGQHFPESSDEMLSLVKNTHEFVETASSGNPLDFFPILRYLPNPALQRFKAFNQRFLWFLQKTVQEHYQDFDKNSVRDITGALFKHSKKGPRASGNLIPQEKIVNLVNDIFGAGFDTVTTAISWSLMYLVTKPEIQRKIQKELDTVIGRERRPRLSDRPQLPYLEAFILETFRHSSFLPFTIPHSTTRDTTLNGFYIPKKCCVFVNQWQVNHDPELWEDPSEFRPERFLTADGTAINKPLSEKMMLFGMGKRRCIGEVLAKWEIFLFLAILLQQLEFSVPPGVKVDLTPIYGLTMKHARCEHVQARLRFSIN

Cytochrome P450 2C9 = Cytochrome P450 2C9 (Homo sapiens, UniProt P11712); test: Inhibition of CYP2C9 by CYPEX bactosome P450 inhibition assay; assay type: ADME
Sequence of Cytochrome P450 2C9 (P11712 whole entry): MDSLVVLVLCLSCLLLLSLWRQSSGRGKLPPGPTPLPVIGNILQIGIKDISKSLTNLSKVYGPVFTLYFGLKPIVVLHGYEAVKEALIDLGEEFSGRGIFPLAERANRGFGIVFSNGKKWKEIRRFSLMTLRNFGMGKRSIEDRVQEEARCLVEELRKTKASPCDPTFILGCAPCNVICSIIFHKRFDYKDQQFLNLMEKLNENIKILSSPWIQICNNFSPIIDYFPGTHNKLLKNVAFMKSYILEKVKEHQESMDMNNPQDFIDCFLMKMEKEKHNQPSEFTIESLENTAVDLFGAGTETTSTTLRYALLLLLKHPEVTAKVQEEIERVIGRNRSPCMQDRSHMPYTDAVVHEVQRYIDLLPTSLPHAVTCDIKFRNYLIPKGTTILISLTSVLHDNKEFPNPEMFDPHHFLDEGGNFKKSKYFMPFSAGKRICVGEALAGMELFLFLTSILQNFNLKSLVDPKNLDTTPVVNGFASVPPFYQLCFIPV

T4 sequence (P08684 whole entry): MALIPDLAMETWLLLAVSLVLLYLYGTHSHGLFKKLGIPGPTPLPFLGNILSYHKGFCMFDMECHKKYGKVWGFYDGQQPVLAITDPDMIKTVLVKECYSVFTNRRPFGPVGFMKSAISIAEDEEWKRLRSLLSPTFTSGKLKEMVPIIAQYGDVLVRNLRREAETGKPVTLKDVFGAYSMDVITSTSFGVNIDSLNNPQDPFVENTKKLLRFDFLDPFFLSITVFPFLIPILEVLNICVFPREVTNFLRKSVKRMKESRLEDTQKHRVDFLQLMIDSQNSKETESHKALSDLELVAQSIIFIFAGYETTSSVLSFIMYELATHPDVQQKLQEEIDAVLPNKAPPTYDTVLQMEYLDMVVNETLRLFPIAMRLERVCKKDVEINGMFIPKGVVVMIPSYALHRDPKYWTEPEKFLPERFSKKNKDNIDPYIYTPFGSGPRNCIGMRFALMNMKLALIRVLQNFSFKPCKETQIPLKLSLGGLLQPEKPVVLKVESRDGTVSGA
Sequence of Cytochrome P450 2D6 (P10635 whole entry): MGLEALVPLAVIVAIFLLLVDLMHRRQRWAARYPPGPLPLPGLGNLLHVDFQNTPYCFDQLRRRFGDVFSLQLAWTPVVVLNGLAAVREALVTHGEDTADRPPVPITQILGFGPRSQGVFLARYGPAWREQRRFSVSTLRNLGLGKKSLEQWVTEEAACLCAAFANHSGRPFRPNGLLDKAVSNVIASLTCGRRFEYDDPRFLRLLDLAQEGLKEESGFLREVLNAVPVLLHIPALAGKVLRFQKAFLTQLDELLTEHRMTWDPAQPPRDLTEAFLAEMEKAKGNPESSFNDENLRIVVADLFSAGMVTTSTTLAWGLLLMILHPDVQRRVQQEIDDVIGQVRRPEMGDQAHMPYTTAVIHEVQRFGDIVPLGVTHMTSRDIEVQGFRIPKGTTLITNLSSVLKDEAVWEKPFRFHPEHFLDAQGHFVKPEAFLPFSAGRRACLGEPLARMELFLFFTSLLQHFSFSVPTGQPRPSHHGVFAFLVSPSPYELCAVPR
Sequence of Cytochrome P450 2C19 (P33261 whole entry): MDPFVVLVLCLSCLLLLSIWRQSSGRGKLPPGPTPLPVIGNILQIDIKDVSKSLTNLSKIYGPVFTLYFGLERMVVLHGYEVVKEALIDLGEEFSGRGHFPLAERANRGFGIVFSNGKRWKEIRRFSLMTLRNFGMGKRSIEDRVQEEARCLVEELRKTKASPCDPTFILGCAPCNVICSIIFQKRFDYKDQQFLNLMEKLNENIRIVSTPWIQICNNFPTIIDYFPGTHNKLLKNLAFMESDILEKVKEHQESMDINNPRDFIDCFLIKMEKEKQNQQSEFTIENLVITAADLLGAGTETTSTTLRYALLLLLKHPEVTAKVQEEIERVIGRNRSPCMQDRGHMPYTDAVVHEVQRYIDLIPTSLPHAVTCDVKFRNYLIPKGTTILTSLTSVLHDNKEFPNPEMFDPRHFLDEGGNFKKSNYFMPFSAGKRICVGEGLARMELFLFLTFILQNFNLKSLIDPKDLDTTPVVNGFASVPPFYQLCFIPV

Ki [1] [µM]	Ki (Orexin receptor type 2) [µM]	Structure (SMILES)	other results
> 15.8	0.0398	Cc1ccc(NC(=O)CSc2nnc(-c3ccoc3C)n2Cc2ccco2)cc1	–
> 15.8	1	Cc1occc1-c1nnc(SCC(=O)NN2CCc3ccccc32)n1Cc1ccco1	–
2	0.1	Cc1occc1-c1nnc(SCC(=O)Nc2ccc(Cl)cc2)n1Cc1ccco1	–
0.631	0.00251	Cc1ccc(NC(=O)CSc2nnc(-c3ccoc3C)n2Cc2ccco2)cc1C	–
> 15.8	–	Cc1ccc(C)c(NC(=O)CSc2nnc(-c3ccoc3C)n2Cc2ccco2)c1	–
0.794	0.00158	Cc1cc(C)cc(NC(=O)CSc2nnc(-c3ccoc3C)n2Cc2ccco2)c1	IC50 (Cytochrome P450 2C19): > 5 µM; inhibition [2]: Active; IC50 (Cytochrome P450 3A4 [3]): > 5 µM; inhibition [4]: Active; IC50 (Cytochrome P450 2D6): > 5 µM; IC50 (Cytochrome P450 3A4 [5]): 2 µM; IC50 (Cytochrome P450 1A2): > 5 µM; IC50 (Cytochrome P450 2C9): > 5 µM
> 15.8	0.398	Cc1nnc(NC(=O)CSc2nnc(-c3ccoc3C)n2Cc2ccco2)s1	–
> 15.8	0.501	COc1ccccc1NC(=O)CSc1nnc(-c2ccoc2C)n1Cc1ccco1	–
> 15.8	0.1	Cc1csc(NC(=O)CSc2nnc(-c3ccoc3C)n2Cc2ccco2)n1	–
2.51	0.0158	COc1ccc(C)cc1NC(=O)CSc1nnc(-c2ccoc2C)n1Cc1ccco1	–
> 15.8	0.501	Cc1occc1-c1nnc(SCC(=O)Nc2cccc(F)c2)n1Cc1ccco1	–
2.51	0.0501	Cc1cccc(NC(=O)CSc2nnc(-c3ccoc3C)n2Cc2ccco2)c1	–
> 15.8	0.398	Cc1cc(C)cc(N(C(=O)CSc2nnc(-c3ccoc3C)n2Cc2ccco2)c2ccccn2)c1	–
> 15.8	0.158	Cc1occc1-c1nnc(SCC(=O)Nc2ccc(F)cc2)n1Cc1ccco1	–
> 15.8	> 15.8	Cc1cccc(NC(=O)CSc2nnc(-c3ccoc3C)n2Cc2ccco2)c1C	–
0.000316	0.000398	Cc1nc(C(=O)N2CCCC[C@H]2CNC(=O)c2cccc3occc23)c(-c2ccc(F)cc2)s1 [SB-649868]	–
3.16	0.316	CC(=O)c1cccc(NC(=O)CSc2nnc(-c3ccoc3C)n2Cc2ccco2)c1	–

Ki [1] [µM]	Ki (Orexin receptor type 2) [µM]	Structure (SMILES)	other results
> 15.8	0.251	Cc1occc1-c1nnc(SCC(=O)Nc2cccc(-c3ccc4c(c3)OCO4)c2)n1Cc1ccco1	–
> 15.8	0.631	Cc1cc(C)cc(N(C(=O)CSc2nnc(-c3ccoc3C)n2Cc2ccco2)C2CNCCN2)c1 (stereo not given)	–
> 15.8	2	Cc1cc(C)cc(N(C(=O)CSc2nnc(-c3ccoc3C)n2Cc2ccco2)c2cccnc2)c1	–
> 15.8	2	Cc1occc1-c1nnc(SCC(=O)Nc2ccccc2F)n1Cc1ccco1	–
> 15.8	> 15.8	Cc1occc1-c1nnc(SCC(N)=O)n1Cc1ccco1	–
1	0.0398	Cc1occc1-c1nnc(SCC(=O)Nc2ccc(F)c(Cl)c2)n1Cc1ccco1	–
> 15.8	> 15.8	Cc1ccccc1NC(=O)CSc1nnc(-c2ccoc2C)n1Cc1ccco1	–
> 15.8	1.58	Cc1occc1-c1nnc(SCC(=O)NCCc2ccccc2)n1Cc1ccco1	–
2.51	0.0316	CC(=O)c1ccc(NC(=O)CSc2nnc(-c3ccoc3C)n2Cc2ccco2)cc1	–
> 15.8	> 15.8	Cc1cccc(C)c1NC(=O)CSc1nnc(-c2ccoc2C)n1Cc1ccco1	–
0.794	0.158	Cc1occc1-c1nnc(SCC(=O)Nc2ccc(N(C)C)cc2)n1Cc1ccco1	–
> 15.8	> 15.8	CCC(C)NC(=O)CSc1nnc(-c2ccoc2C)n1Cc1ccco1 (stereo not given)	–
1.26	0.501	Cc1ccc(NC(=O)CSc2nnc(-c3ccoc3C)n2Cc2ccco2)c(C)c1	–
> 15.8	1	Cc1occc1-c1nnc(SCC(=O)Nc2ccccc2)n1Cc1ccco1	–
2	0.0631	Cc1occc1-c1nnc(SCC(=O)Nc2cccc(Cl)c2)n1Cc1ccco1	–
> 15.8	0.2	COc1ccc(NC(=O)CSc2nnc(-c3ccoc3C)n2Cc2ccco2)cc1	–
> 15.8	1	Cc1occc1-c1nnc(SCC(=O)Nc2nccs2)n1Cc1ccco1	–

Reference: ChEMBL document CHEMBL1268981, “2-Methyl-3-furanyl-4H-1,2,4-triazol-3-ylthioamides: a new class of selective orexin 2 antagonists” (Bioorg Med Chem Lett, 2010)
